Laboratory results taken from article PMC5467912, “Asymmetric regulation of quorum-sensing receptors drives autoinducer-specific gene expression programs in Vibrio cholerae” (PLoS Genetics, 2017).
Several values for one entry are separate records, joined by “and”; a condition that tells them apart may be missing. Identical values can stand only once.

System: VCA0107-GFP
Assay: Qrr4 regulation of VCA0107-GFP translational fusion, anhydrous tetracycline-inducible qrr4 (S4 Fig)
Format: cell-based, E. coli
Excerpt: We examined whether Qrr regulation of CqsS is direct or indirect using a CqsS-mKATE2 translational fusion in E. coli expressing inducible qrr4. We reasoned that, if CqsS production is controlled by Qrr4, repression of CqsS-mKATE2 should occur when Qrr4 is induced. We verified that our system works by showing that inducible Qrr4 is capable of repressing a previously-identified direct target, VCA0107-GFP [24]. However, no repression of CqsS-mKATE2 occurred following induction of Qrr4 (S4 Fig).
To assay qrr4 regulation of cqsS, the relative fluorescence of translational fusions (VCA0107B-GFP and CqsS-mKATE2) was measured in E. coli BWR1. E. coli carrying one of these plasmids also contained either an empty plasmid (pZA31) or pZA31 carrying anhydrous tetracycline-inducible qrr4. Qrr4-mediated repression of CqsS-mKATE2 was assessed. VCA0107-GFP is a known Qrr4-repressed target and was used as a positive control to show the system was functional. Overnight cultures were diluted 1:50 into fresh medium and aliquotted in triplicate into 96 well plates. […] OD600 and fluorescence were assessed using an Envision 2103 Multilabel Reader (Perkin Elmer).
Supplementary file pgen.1006826.s008.tiff: S4 Fig Qrr4 indirectly regulates cqsS. Fluorescence from plasmid-encoded VCA0107-GFP (circles) and CqsS-mKATE2 (squares) was measured in E. coli. Either an empty vector (pZA31-lucNB, black) or pZA31-lucNB carrying tetracycline-inducible qrr4 (pYS245, red) was present in each strain. VCA0107 encodes a type VI secretion system component that is regulated by Qrr4. Data represent two experiments conducted in triplicate. Error bars represent standard errors of the mean. (TIFF) Click here for additional data file.

## Cc1c2c(c(O)c3c(O)cccc13)C(=O)[C@]1(O)C(=O)C(C(N)=O)=C(O)[C@@H](N(C)C)[C@@H]1C2 [aTc]
pVC107 Qrr4, aTc 0.0976562 ng/ml (normalization point)
  Relative reporter signal, experimental averages: 1
pVC107 Qrr4, aTc 0.195312 ng/ml, normalized to 0.0976562 ng/ml
  Relative reporter signal, experimental averages: 1.025 and 0.934
pVC107 Qrr4, aTc 0.390625 ng/ml, normalized to 0.0976562 ng/ml
  Relative reporter signal, experimental averages: 1.044 and 1.031
pVC107 Qrr4, aTc 0.78125 ng/ml, normalized to 0.0976562 ng/ml
  Relative reporter signal, experimental averages: 1.069 and 1.04
pVC107 Qrr4, aTc 1.5625 ng/ml
  Relative reporter signal, single replicates: 0.9829 and 1.022 and 1.084 and 1.082 and 1.066 and 1.076
pVC107 Qrr4, aTc 1.5625 ng/ml, normalized to 0.0976562 ng/ml
  Relative reporter signal, experimental averages: 1.075 and 1.029
pVC107 Qrr4, aTc 3.125 ng/ml
  Relative reporter signal, single replicates: 0.9883 and 0.983 and 1.044 and 1.076 and 1.038 and 1.063
pVC107 Qrr4, aTc 3.125 ng/ml, normalized to 0.0976562 ng/ml
  Relative reporter signal, experimental averages: 1.059 and 1.005
pVC107 Qrr4, aTc 6.25 ng/ml
  Relative reporter signal, single replicates: 0.8986 and 0.9025 and 1.018 and 1.038 and 1.0458 and 1.143
pVC107 Qrr4, aTc 6.25 ng/ml, normalized to 0.0976562 ng/ml
  Relative reporter signal, experimental averages: 1.075 and 0.9397
pVC107 Qrr4, aTc 12.5 ng/ml
  Relative reporter signal, single replicates: 0.8122 and 0.8585 and 0.963 and 0.9294 and 0.9674 and 1.0333
pVC107 Qrr4, aTc 12.5 ng/ml, normalized to 0.0976562 ng/ml
  Relative reporter signal, experimental averages: 0.9767 and 0.8779
pVC107 Qrr4, aTc 25 ng/ml
  Relative reporter signal, single replicates: 0.8439 and 0.8636 and 0.8571 and 0.6965 and 0.6285 and 0.7212
pVC107 Qrr4, aTc 25 ng/ml, normalized to 0.0976562 ng/ml
  Relative reporter signal, experimental averages: 0.6821 and 0.8548
pVC107 Qrr4, aTc 50 ng/ml
  Relative reporter signal, single replicates: 0.8785 and 0.8105 and 0.7819 and 0.6416 and 0.6171 and 0.6104
pVC107 Qrr4, aTc 50 ng/ml, normalized to 0.0976562 ng/ml
  Relative reporter signal, experimental averages: 0.623 and 0.8236
pVC107 Qrr4, aTc 100 ng/ml
  Relative reporter signal, single replicates: 0.9222 and 0.8261 and 0.8207 and 0.6781 and 0.6674 and 0.7021
pVC107 Qrr4, aTc 100 ng/ml, normalized to 0.0976562 ng/ml
  Relative reporter signal, experimental averages: 0.6825 and 0.8563
pVC107 Qrr4, aTc 200 ng/ml
  Relative reporter signal, single replicates: 0.9029 and 0.8931 and 0.8706 and 0.7542 and 0.8262 and 0.8413
pVC107 Qrr4, aTc 200 ng/ml, normalized to 0.0976562 ng/ml
  Relative reporter signal, experimental averages: 0.8072 and 0.8889
pVC107 vector, aTc 0.0976562 ng/ml (normalization point)
  Relative reporter signal, experimental averages: 1
pVC107 vector, aTc 0.195312 ng/ml, normalized to 0.0976562 ng/ml
  Relative reporter signal, experimental averages: 1.1928 and 0.9542
pVC107 vector, aTc 0.390625 ng/ml, normalized to 0.0976562 ng/ml
  Relative reporter signal, experimental averages: 1.239 and 0.9963
pVC107 vector, aTc 0.78125 ng/ml
  Relative reporter signal, single replicates: 1.048 and 0.979 and 1.04 and 0.9279
pVC107 vector, aTc 0.78125 ng/ml, normalized to 0.0976562 ng/ml
  Relative reporter signal, experimental averages: 1.09 and 0.9823
pVC107 vector, aTc 1.5625 ng/ml
  Relative reporter signal, single replicates: 1.061 and 1.021 and 0.9897 and 0.9644 and 1.121 and 1.094
pVC107 vector, aTc 1.5625 ng/ml, normalized to 0.0976562 ng/ml
  Relative reporter signal, experimental averages: 1.092 and 0.9917
pVC107 vector, aTc 3.125 ng/ml
  Relative reporter signal, single replicates: 0.9263 and 0.9693 and 1.011 and 0.9278 and 1.0391 and 1.108
pVC107 vector, aTc 3.125 ng/ml, normalized to 0.0976562 ng/ml
  Relative reporter signal, experimental averages: 1.024 and 0.9695
pVC107 vector, aTc 6.25 ng/ml
  Relative reporter signal, single replicates: 0.9938 and 0.9834 and 0.9842 and 0.9532 and 1.085 and 1.105
pVC107 vector, aTc 6.25 ng/ml, normalized to 0.0976562 ng/ml
  Relative reporter signal, experimental averages: 1.061 and 0.9736
pVC107 vector, aTc 12.5 ng/ml
  Relative reporter signal, single replicates: 0.9967 and 0.9285 and 1.002 and 0.9658 and 1.022 and 1.055
pVC107 vector, aTc 12.5 ng/ml, normalized to 0.0976562 ng/ml
  Relative reporter signal, experimental averages: 1.025 and 0.9655
pVC107 vector, aTc 25 ng/ml
  Relative reporter signal, single replicates: 1.488 and 0.9589 and 0.9637 and 0.9614 and 1.035 and 1.177
pVC107 vector, aTc 25 ng/ml, normalized to 0.0976562 ng/ml
  Relative reporter signal, experimental averages: 1.233 and 0.9614
pVC107 vector, aTc 50 ng/ml
  Relative reporter signal, single replicates: 1.1512 and 1.025 and 1.023 and 0.9608 and 1.174 and 1.186
pVC107 vector, aTc 50 ng/ml, normalized to 0.0976562 ng/ml
  Relative reporter signal, experimental averages: 1.17 and 1.003
pVC107 vector, aTc 100 ng/ml
  Relative reporter signal, single replicates: 1.032 and 0.8995 and 0.9791 and 1.0414 and 1.344 and 1.183
pVC107 vector, aTc 100 ng/ml, normalized to 0.0976562 ng/ml
  Relative reporter signal, experimental averages: 1.1863 and 0.9733
pVC107 vector, aTc 200 ng/ml
  Relative reporter signal, single replicates: 1.427 and 1.005 and 1.106 and 1.055 and 1.369 and 1.3707
pVC107 vector, aTc 200 ng/ml, normalized to 0.0976562 ng/ml
  Relative reporter signal, experimental averages: 1.389 and 1.0553
